Consider nine compounds from article PMC8231170, “Biphenylalkoxyamine Derivatives–Histamine H3 Receptor Ligands with Butyrylcholinesterase Inhibitory Activity” (Molecules, 2021).

Series [1] has as its target human acetylcholinesterase. The note with it: read-out: hAChE IC50; cited from earlier work.
In the next series the target is hH3R. The note with it: cited from earlier work.
Series [2] deals with human butyrylcholineserase. The note with it: read-out: hBuChE IC50; cited from earlier work.
For series [3], the target named is T1, AChE from electric eel (Electrophorus electricus, UniProt O42275).
T1 construct: AChE was obtained from electric eel and BuChE from equine serum; purchased Sigma Aldrich; host or cells: electric eel (natural source)
The following applies: cited from earlier work; for IC50: AChE from electric eel, read-out: eeAChE IC50 Mean ± SEM; for eeAChE % Inh.: at 10 μM.

Another series concerns the target T2, human MAO B (Homo sapiens, UniProt P27338).
T2 construct: purchased Sigma Aldrich M7441
T2 sequence (P27338 1-520): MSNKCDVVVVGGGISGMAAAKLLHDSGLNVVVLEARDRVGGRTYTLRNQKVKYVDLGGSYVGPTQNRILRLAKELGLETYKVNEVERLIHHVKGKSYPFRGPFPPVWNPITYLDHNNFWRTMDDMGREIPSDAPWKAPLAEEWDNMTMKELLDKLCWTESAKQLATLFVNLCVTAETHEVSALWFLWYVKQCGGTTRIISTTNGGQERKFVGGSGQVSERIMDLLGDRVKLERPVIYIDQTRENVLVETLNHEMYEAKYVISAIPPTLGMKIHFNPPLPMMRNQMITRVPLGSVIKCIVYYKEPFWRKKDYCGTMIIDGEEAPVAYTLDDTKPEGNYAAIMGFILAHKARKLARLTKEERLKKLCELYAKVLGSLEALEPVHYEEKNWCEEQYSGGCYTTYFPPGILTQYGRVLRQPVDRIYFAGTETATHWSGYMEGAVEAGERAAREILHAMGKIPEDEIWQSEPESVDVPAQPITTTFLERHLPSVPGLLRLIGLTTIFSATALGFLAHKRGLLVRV
Description: fluorometric Monoamine Oxidase assay. Format: biochemical. The following applies: for inhibition at 1 µM: read-out: hMAO B %Inh. (converted). The procedure:
Inhibition of human MAO B (hMAO B) was evaluated using a fluorometric Monoamine Oxidase assay as we described previously.
Inhibition of hMAO B was evaluated using fluorometric Monoamine Oxidase assay as described by Łażewska et al.. Recombinant MAO B was purchased from Sigma Aldrich (M7441). […] The assay was carried out in 96-well plate. Tested compounds dissolved in DMSO (1 μM) were added to wells that contained 98 µL of enzyme dilution (1 µg/well) in phosphate buffer (50 mM, pH 7.4). […] An enzymatic reaction started following addition of para-tyramine solution (200 μM). […] Each experiment was performed in duplicate.

The next series deals with T3, eqBuChE (Equus caballus, UniProt P81908).
T3 construct: AChE was obtained from electric eel and BuChE from equine serum; purchased Sigma Aldrich; host or cells: equine serum (natural source)
The experiment in a line: kinetic studies of eqBuChE inhibition. Format: biochemical. The note with it: for type of eqBuChE inhibition: Lineweaver–Burk and Cornish–Bowden plots, substrate butyrylthiocholine. How it is done:
Moreover, the dissociation constant (Ki), describing the binding affinity between the inhibitor and the enzyme, was determined.
EqBuChE stock solution was diluted with demineralized water prior to use, giving the final concentration of 0.027 U/mL in the wells. […] For each concentration of the target compound, all six BTC solutions were utilized to perform the assays. Vmax and Km values of the Michaelis−Menten kinetics were calculated by nonlinear regression from substrate−velocity curves. Lineweaver-Burk and Cornish-Bowden plots were calculated using linear regression in GraphPad Prism 5 (GraphPad Software, San Diego, CA, USA). Each experiment was performed in triplicate.

For series [4], the target named is T4, BuChE from equine serum (Equus caballus, UniProt P81908).
T4 construct: AChE was obtained from electric eel and BuChE from equine serum; purchased Sigma Aldrich; host or cells: equine serum (natural source)
The note with it: cited from earlier work.

The target in series [5] is T5, human histamine H3 receptor (Homo sapiens, UniProt Q9Y5N1).
T5 construct: expressed in transfected cells; host or cells: HEK293
The note with it: read-out: hH3R Ki Mean ± SD [CI 95%]; [3H]Nα-methylhistamine, HEK293 cells stably expressing human H3R; cited from earlier work.

Series [6] deals with T1, AChE from electric eel. Description: eeAChE inhibition, Ellman's method. Format: biochemical. The note with it: read-out: eeAChE % Inh. How it is done:
The inhibitory activities of the tested compounds against cholinesterases were evaluated by Ellman’s method. AChE was obtained from electric eel and BuChE from equine serum. Donepezil and rivastigmine were used as reference compounds. […]. Inhibitory activities of the tested compounds against cholinesterases were measured using a spectrophotometric method modified for 96-well microplates as described recently.
[…]. First, all compounds were screened at the concentration of 10 μM. The changes in absorbance were measured at 412 nm, using a microplate reader (EnSpire Multimode; PerkinElmer, Waltham, MA, USA). Then, the percent of inhibition of tested enzymes for each compound was calculated. […] Each concentration was measured in triplicate. All calculations were made using nonlinear regression GraphPad Prism 5 (GraphPad Software, San Diego, CA, USA).

Series [7] addresses T4, BuChE from equine serum. Description: eqBuChE inhibition, Ellman's method. The series is classed as biochemical. The procedure:
The inhibitory activities of the tested compounds against cholinesterases were evaluated by Ellman’s method. AChE was obtained from electric eel and BuChE from equine serum. […] Inhibitory activities of the tested compounds against cholinesterases were measured using a spectrophotometric method modified for 96-well microplates as described recently.
First, all compounds were screened at the concentration of 10 μM. […] Then, the percent of inhibition of tested enzymes for each compound was calculated. […] Each concentration was measured in triplicate. All calculations were made using nonlinear regression GraphPad Prism 5 (GraphPad Software, San Diego, CA, USA).

In series [8] the test system is mouse model of scopolamine-induced memory impairments. The experiment in a line: step-through Passive Avoidance Task. The series is classed as in vivo. The note with it: mice. How it is done: This procedure was created for studying short-term memory as well as long-term memory. The paradigm requires the rodents to behave contrary to their innate preference for dark areas and for avoiding bright ones.
The experiments were carried out on adult male Albino Swiss mice (CD-1, 18–25 g). […] Experimental groups consisted of 6–12 animals, all the animals were used only once and they were killed by cervical dislocation immediately after the assay. Behavioral measures were scored by trained observers, which were blind to experimental conditions. Treatment of laboratory animals in the present study was in full accordance with the respective Polish regulations.
Control animals (negative control) were given an appropriate amount of vehicle (1% aqueous solution of Tween 80; i.p.) 30 min before the test.
The task was performed according to the method described previously. Briefly, the test was conducted in the apparatus with two compartments (LE872, Bioseb, France). The illuminated white compartment (20 cm × 21 cm × 20 cm, 1000 lx) was separated by an automated sliding gate with the smaller dark compartment (7.3 cm × 7.5 cm × 14 cm, 10 lx) equipped with an electric grid floor. For acquisition session, mice were first placed individually in the white compartment and after 30 s the gate to the smaller compartment was opened. Immediately after entering into the dark compartment, the gate was closed and the mouse was punished by an unavoidable electric foot shock (0.8 mA for 2 s). […] Next day (24 h later), the pretested animals were placed again into the bright compartment. […] The latency time to cross through the gate between the compartments was measured.

The next series addresses histamine receptors: H1. The following applies: cited from earlier work.
The conditions of series [9]: previous in vitro studies; cited from earlier work.
For series [10] the following is noted: up to 10 µM; cited from earlier work.
The next series concerns the target histamine receptors: H4. The following applies: cited from earlier work.
The target in series [11] is Fatty Acid Amide Hydrolase from rat brain membranes. The note with it: read-out: rFAAH IC50; cited from earlier work.
Setting [12] is: read-out: eqBuChE IC50 Mean ± SEM.

“Also recorded” adds a separate entry of the source. Like-named read-outs stand apart in the source and are kept apart here. Marks after values point to notes of the source that are not given here.

T1 sequence (O42275 24-633): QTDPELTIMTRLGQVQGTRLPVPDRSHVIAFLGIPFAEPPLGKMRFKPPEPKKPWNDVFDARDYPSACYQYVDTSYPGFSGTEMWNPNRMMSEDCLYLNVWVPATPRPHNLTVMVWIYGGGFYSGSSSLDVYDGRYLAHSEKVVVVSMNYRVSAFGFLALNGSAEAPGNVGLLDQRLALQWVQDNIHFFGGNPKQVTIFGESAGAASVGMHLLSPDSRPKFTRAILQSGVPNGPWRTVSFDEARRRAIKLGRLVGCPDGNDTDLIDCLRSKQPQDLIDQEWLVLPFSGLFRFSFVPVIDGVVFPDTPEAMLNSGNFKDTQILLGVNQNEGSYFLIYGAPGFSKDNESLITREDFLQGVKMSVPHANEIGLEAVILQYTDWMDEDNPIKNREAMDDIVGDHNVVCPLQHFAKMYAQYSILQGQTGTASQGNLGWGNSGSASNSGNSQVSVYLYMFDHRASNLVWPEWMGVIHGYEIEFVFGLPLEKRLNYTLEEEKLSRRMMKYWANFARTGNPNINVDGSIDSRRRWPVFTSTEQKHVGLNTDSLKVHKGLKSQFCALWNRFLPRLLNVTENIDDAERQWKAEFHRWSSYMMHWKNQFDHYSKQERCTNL
T4 sequence (P81908 whole entry): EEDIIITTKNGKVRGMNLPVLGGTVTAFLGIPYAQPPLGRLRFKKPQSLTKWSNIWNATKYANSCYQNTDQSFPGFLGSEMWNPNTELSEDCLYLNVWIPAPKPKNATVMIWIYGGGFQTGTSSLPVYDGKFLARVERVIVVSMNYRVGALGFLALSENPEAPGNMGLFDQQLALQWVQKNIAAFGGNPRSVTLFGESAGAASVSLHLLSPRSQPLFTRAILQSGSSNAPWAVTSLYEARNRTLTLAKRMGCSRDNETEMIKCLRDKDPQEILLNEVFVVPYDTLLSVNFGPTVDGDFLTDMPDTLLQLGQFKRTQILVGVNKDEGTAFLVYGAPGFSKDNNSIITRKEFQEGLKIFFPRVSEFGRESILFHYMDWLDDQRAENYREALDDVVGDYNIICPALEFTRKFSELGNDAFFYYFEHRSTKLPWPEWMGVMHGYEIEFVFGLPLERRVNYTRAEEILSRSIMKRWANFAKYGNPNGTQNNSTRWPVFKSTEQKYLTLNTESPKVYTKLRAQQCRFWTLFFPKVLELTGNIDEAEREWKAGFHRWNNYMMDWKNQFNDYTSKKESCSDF
T3 sequence (P81908 whole entry): as above
T5 sequence (Q9Y5N1 whole entry): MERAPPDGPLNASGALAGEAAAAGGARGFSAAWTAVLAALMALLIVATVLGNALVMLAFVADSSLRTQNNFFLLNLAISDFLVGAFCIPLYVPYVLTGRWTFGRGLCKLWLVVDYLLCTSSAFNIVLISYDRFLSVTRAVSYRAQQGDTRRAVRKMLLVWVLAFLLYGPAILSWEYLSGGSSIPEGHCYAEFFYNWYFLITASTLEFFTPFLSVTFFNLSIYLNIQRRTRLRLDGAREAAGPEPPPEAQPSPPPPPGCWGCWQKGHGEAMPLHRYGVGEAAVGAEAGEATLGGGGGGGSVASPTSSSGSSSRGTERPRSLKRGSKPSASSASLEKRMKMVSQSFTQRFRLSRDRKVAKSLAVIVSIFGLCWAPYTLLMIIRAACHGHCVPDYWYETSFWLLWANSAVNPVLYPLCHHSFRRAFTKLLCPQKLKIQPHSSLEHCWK

`O=c1c2cc(Cl)ccc2oc2ccc(OCCCCCN3CCCCCC3)cc12` [Compound E342]: the IC50 in series [1] is 120 nM; in series [2] it was 1600 nM. For the same compound, the inhibition constant (Ki) at hH3R was 100 nM.
For the compound `c1ccc(-c2ccc(OCCCCCCN3CCCCCC3)cc2)cc1` [Compound 5], at AChE from electric eel [3], the IC50 was 2760 ± 40 nM and the “eeAChE % Inh.” value was “more than 50%”. In addition, on human MAO B, the inhibition at 1 µM was 45%. Further, at eqBuChE, the “type of eqBuChE inhibition” value is “non-competitive type of eqBuChE inhibition”. Further, on eqBuChE (replot of Lineweaver–Burk data, read-out: dissociation constant (Ki) for eqBuChE), the Ki was 652 nM. In addition, the IC50 on BuChE from equine serum [4] (setting [12]) is 600 ± 10 nM.
With `c1ccc(-c2cccc(OCCCCCCN3CCCCC3)c2)cc1` [Compound 9], the Ki in [5] is 149 ± 108 nM. On human MAO B, the inhibition at 1 µM was 16%. For the same compound, the inhibition at 10 µM on AChE from electric eel [6] is 35%. The IC50 on BuChE from equine serum [7] (BuChE from equine serum, read-out: eqBuChE IC50 Mean ± SEM) was 1780 ± 80 nM.
`CC1CCN(CCCCCCOc2ccc(-c3ccccc3)cc2)CC1` [Compound 4]: the results for the IC50 at AChE from electric eel [3] and on BuChE from equine serum [4] (setting [12]) were 4460 ± 100 nM and 740 ± 20 nM, respectively. Further, the “eeAChE % Inh.” value at AChE from electric eel [3] is “more than 50%”. The inhibition at 1 µM on human MAO B was 27%.
In the case of `c1ccc(-c2ccc(OCCCCCN3CCCCCC3)cc2)cc1` [Compound 19, 1-(5-([1,1′-biphenyl]-4-yloxy)pentyl)azepane], the figures for the “latency time, retention trial” value in series [8] (1.25 mg/kg i.p. before scopolamine 1 mg/kg), in series [8] (2.5 mg/kg i.p. before scopolamine 1 mg/kg) and in series [8] (5.0 mg/kg i.p. before scopolamine 1 mg/kg) were 93.5 ± 17.4 s, 119.1 ± 21.2 s and 129.8 ± 17.8 s, respectively. Moreover, the “activity in retention trial” value in [8] (10 mg/kg i.p. before scopolamine 1 mg/kg) is “lower activity”. Moreover, in series [8] (Passive Avoidance Task, listed as 19 (E153)), the “effect on scopolamine-induced memory deficits” value was “effectively alleviated memory deficits caused by scopolamine; also recorded: reversed memory impairments induced by scopolamine”. Moreover, in [8] (i.p.), the “latency times, acquisition trial” value was “neither scopolamine, nor 19 nor rivastigmine significantly affected latency times”. In addition, the inhibition constant (Ki) was 1300 nM on histamine receptors: H1 and 21800 nM on histamine receptors: H4. Moreover, the IC50 against human MAO B worked out at 243 ± 73 nM; against BuChE from equine serum [7], 590 ± 10 nM. At human MAO B, the inhibition at 1 µM is 54%. Also, in [9], the “blood–brain barrier crossing” value was “crosses the blood–brain barrier (BBB)”. Also, the “type of eqBuChE inhibition” value on eqBuChE is “mixed type of enzyme inhibition; also recorded: mixed mode of enzyme inhibition”. Besides, the inhibition at 10 µM at AChE from electric eel [6] was 44%. For the same compound, the mutagenic activity result in series [10] is recorded as “no mutagenic activity”.
With `Cc1[nH]c2ccccc2c1CC(=O)NCCC1CCN(Cc2ccccc2)CC1` [Compound 1], the half-maximal inhibitory concentration (IC50) in series [1] was 7270 nM; in series [2] it was 1.09 nM.
On to `CC1CCN(CCCCCOc2ccc(-c3ccccc3)cc2)CC1` [Compound 3], for which the “eeAChE % Inh.” value on AChE from electric eel [3] was “(42% ± 1) ^i”. Besides, on human MAO B, the inhibition at 1 µM was 36%. Besides, the IC50 at BuChE from equine serum [4] (read-out: eqBuChE IC50) was 851 nM; at BuChE from equine serum [4] (setting [12]) it was 850 ± 20 nM.
With `O=C(NCCCCCc1ccccc1)Oc1cccc(Cn2cc(COc3ccc4ccc(=O)oc4c3)nn2)c1` [Compound 2], the IC50 in series [1] is 922 nM; in series [11], 28 nM; in series [2], 43 nM.
As to `C#CCN(C)Cc1cc2cc(OCCCN3CCCCC3)ccc2n1C` [contilisant], the results for the IC50 in series [1] and in series [2] were 530 nM and 1690 nM, respectively. In addition, on hH3R, the Ki was 11 nM.
